The source of these data is ChEMBL document CHEMBL4420076, “Amylin and calcitonin receptor agonist” (2017).

Series [1] is described as follows: Solubility in 100 mM glycylglycine buffer at pH 5.0 incubated for 18 hrs by UPLC analysis. The class given is physicochemical.
The target in series [2] is T1, Amylin receptor AMY3; CALCR/RAMP3 (Rattus norvegicus, UniProt P32214+Q9JJ73).
T1 sequence (P32214 whole entry): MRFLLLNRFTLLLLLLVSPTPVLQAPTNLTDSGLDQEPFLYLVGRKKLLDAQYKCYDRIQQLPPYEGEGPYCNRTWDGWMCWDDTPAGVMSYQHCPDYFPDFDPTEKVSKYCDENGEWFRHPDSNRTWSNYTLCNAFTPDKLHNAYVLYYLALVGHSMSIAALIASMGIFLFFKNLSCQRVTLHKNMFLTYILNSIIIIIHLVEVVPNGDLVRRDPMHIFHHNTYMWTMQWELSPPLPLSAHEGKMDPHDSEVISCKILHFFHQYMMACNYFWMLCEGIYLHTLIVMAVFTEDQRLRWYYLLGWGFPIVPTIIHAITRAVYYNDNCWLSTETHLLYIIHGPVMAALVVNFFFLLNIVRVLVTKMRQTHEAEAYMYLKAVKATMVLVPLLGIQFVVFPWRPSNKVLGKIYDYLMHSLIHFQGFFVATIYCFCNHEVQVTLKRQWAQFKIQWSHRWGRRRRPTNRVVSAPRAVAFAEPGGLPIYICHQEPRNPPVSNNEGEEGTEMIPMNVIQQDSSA
T1 sequence (Q9JJ73 whole entry): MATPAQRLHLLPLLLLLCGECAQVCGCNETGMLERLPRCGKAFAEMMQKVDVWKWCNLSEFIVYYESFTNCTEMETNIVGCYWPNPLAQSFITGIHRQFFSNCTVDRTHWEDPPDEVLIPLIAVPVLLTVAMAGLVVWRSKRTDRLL
The experiment in a line: Displacement of [125I]-labeled rat amylin from rat amylin receptor expressed in BHK tkts13 cell membranes co-expressing RAMP3 incubated for 120 mins by scintillation proximity assay.

Series [3] relates to Rattus norvegicus. Briefly: Reduction in food intake in Sprague-Dawley rat at 3 nmol/kg measured 24 to 48 hrs post dose relative to control. The class given is functional. On the set-up: scale not given: the % may be the effect or the level left.
A short description of series [4]: Solubility in 100 mM bistrispropane buffer at pH 6.5 incubated for 18 hrs by UPLC analysis. The class given is physicochemical.
Series [5] deals with T2, Amylin receptor AMY3; CALCR/RAMP3 (Homo sapiens, UniProt O60896+P30988).
T2 sequence (P30988 whole entry): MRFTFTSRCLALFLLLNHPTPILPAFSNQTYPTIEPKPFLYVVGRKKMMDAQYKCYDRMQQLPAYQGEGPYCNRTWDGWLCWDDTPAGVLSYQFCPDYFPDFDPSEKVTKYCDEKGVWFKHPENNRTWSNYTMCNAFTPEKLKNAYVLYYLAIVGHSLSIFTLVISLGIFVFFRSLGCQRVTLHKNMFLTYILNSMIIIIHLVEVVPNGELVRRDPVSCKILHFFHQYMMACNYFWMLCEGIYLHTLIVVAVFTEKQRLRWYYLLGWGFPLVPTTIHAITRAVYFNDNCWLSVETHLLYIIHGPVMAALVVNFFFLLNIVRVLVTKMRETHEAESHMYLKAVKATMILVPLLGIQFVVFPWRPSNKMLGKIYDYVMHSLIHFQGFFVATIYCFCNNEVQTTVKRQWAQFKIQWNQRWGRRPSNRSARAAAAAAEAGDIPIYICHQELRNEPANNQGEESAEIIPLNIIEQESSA
T2 sequence (O60896 whole entry): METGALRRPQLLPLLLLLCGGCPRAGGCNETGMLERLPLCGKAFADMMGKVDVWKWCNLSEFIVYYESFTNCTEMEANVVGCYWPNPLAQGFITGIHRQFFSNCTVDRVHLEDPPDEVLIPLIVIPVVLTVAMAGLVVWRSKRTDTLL
Briefly: Displacement of [125I]-labeled rat amylin from human amylin receptor expressed in BHK570 cell membranes co-expressing RAMP3 incubated for 120 mins by scintillation proximity assay. (In general: Displacement assays read how much labelled ligand stays bound in the presence of the test substance.)

A short description of series [6]: Solubility in 100 mM glycylglycine buffer at pH 4.0 incubated for 18 hrs by UPLC analysis. The class given is physicochemical.
Series [7] deals with T2, Amylin receptor AMY3; CALCR/RAMP3. Briefly: Agonist activity at human amylin receptor expressed in BHK570 cells co-expressing RAMP3 assessed as increase in intracellular cAMP concentration incubated for 3 hrs in absence of albumin by CRE luciferase reporter gene assay. The class given is functional, cell-based. For orientation: Reporter assays use an easily measured gene product as a stand-in for the process of interest.

Series [8] in a line: Solubility in 100 mM glycylglycine buffer at pH 3.0 incubated for 18 hrs by UPLC analysis. The class given is physicochemical.
The subject of series [9] is Rattus norvegicus. The experiment in a line: Reduction in food intake in Sprague-Dawley rat at 3 nmol/kg measured 0 to 24 hrs post dose relative to control. The class given is functional. Further details: scale not given: the % may be the effect or the level left.
A short description of series [10]: Solubility in 100 mM bistrispropane buffer at pH 6.0 incubated for 18 hrs by UPLC analysis. The class given is physicochemical.
Series [11] can be described thus: Solubility in 100 mM bistrispropane buffer at pH 7.5 incubated for 18 hrs by UPLC analysis. The class given is physicochemical.
Series [12] is described as follows: Stability in pH 7.5 buffer assessed as lag time for fibril formation at 1 uM by Thioflavin T based fluorescence assay. The class given is physicochemical. The note with it: pH 7.5, 1 µM.
The target in series [13] is T3, Calcitonin receptor (Homo sapiens, UniProt P30988).
T3 sequence (P30988 whole entry): T2 sequence (P30988 whole entry)
Briefly: Displacement of [125I]-labeled human calcitonin from human calcitonin receptor expressed in BHK tkts13 cell membranes incubated for 1 hr by scintillation proximity assay.

Series [14] in a line: Solubility in 100 mM bistrispropane buffer at pH 8.0 incubated for 18 hrs by UPLC analysis. The class given is physicochemical.
A short description of series [15]: Solubility in 100 mM bistrispropane buffer at pH 7.0 incubated for 18 hrs by UPLC analysis. The class given is physicochemical.
Series [16] deals with T3, Calcitonin receptor. The experiment in a line: Agonist activity at human calcitonin receptor expressed in BHK570 cells assessed as increase in intracellular cAMP concentration incubated for 3 hrs in presence of 10% FBS by CRE luciferase reporter gene assay. The class given is functional, cell-based.
Series [17] has as its target T3, Calcitonin receptor. Briefly: Agonist activity at human calcitonin receptor expressed in BHK570 cells assessed as increase in intracellular cAMP concentration incubated for 3 hrs in absence of albumin by CRE luciferase reporter gene assay. The class given is functional, cell-based.
A short description of series [18]: Stability in pH 7.5 buffer assessed as compound recovery at 1 uM by Thioflavin T based fluorescence assay. The note with it: read-out: Drug recovery. The class given is physicochemical.
The target in series [19] is T2, Amylin receptor AMY3; CALCR/RAMP3. The experiment in a line: Agonist activity at human amylin receptor expressed in BHK570 cells co-expressing RAMP3 assessed as increase in intracellular cAMP concentration incubated for 3 hrs in presence of 10% FBS by CRE luciferase reporter gene assay. The class given is functional, cell-based.
Series [20] concerns the target T3, Calcitonin receptor. The experiment in a line: Displacement of [125I]-labeled human calcitonin from human calcitonin receptor expressed in BHK tkts13 whole cells incubated for 60 mins by scintillation proximity assay. The class given is cell-based.

Molecules are shown by their SMILES. Numbered stars: 1 amine (or outer) side, 2 acyl side, 3 side chain; on linkers, the order of the positions; unused ones are H or OH. Peptide text beside a SMILES is read from it. * marks the point of attachment. C18 diacid = O=C(O)CCCCCCCCCCCCCCCCC(=O)*; C16 diacid = O=C(O)CCCCCCCCCCCCCCC(=O)*; γGlu = O=C(O)[C@H](CCC(=O)[*:2])N[*:1]

By solubility is commonly meant the dissolved amount per volume that the medium holds. For orientation: IC50 means the concentration that inhibits the measured activity by half. The EC50 is the concentration that produces a half-maximal response. As for `CC(C)C[C@H](NC(=O)[C@H](C)NC(=O)[C@H](C)NC(=O)[C@@H](NC(=O)[C@H](CO)NC(=O)[C@H](CC(C)C)NC(=O)[C@H](CCC(=O)O)NC(=O)[C@H](CO)NC(=O)[C@H](C)NC(=O)CC[C@H](NC(=O)CCCCCCCCCCCCCCC(=O)O)C(=O)O)[C@@H](C)O)C(=O)NCC(=O)N[C@@H](CCCNC(=N)N)C(=O)N[C@@H](CC(C)C)C(=O)N[C@@H](CO)C(=O)N[C@@H](C)C(=O)N[C@@H](CCC(=O)O)C(=O)N[C@@H](CC(C)C)C(=O)N[C@@H](Cc1cnc[nH]1)C(=O)N[C@@H](CCC(=O)O)C(=O)N[C@@H](CC(C)C)C(=O)N[C@@H](C)C(=O)N[C@H](C(=O)N[C@@H](CC(C)C)C(=O)N1CCC[C@H]1C(=O)N[C@@H](CCCNC(=N)N)C(=O)N[C@H](C(=O)N[C@@H](CCC(=O)O)C(=O)N[C@H](C(=O)NCC(=O)N[C@@H](CO)C(=O)NCC(=O)N[C@@H](CO)C(=O)N1CCC[C@H]1C(N)=O)[C@@H](C)O)[C@@H](C)O)[C@@H](C)O` ({C16 diacid-γGlu}-ASELSTAALGRLSAELHELATLPRTETGSGSP-NH2), the solubility at 18 h in series [1], in series [4], in series [6], in series [8], in series [10] and in series [11] was at least 200 µM in each case. Further, the solubility at 18 h in series [14] and in series [15] was at least 200 µM throughout. The half-inhibitory concentration (IC50) in series [2] is 0.022 nM; in series [5], 0.037 nM; on Calcitonin receptor [13], 0.024 nM. Moreover, the Activity in the series with Rattus norvegicus [3] worked out at 10%; in the series with Rattus norvegicus [9], 66%. The 50% effective concentration (EC50) in [7] is 0.018 nM; at Calcitonin receptor [16], 0.002 nM; on Calcitonin receptor [17], 0.015 nM; in series [19], 0.004 nM. Besides, the Time in [12] is above 45 h. The remaining at 1 µM in [18] amounted to 100%.
Turning to `CC(C)C[C@H](NC(=O)[C@H](C)NC(=O)[C@H](C)NC(=O)[C@@H](NC(=O)[C@H](CO)NC(=O)[C@H](CC(C)C)NC(=O)[C@H](CCC(N)=O)NC(=O)[C@H](CO)NC(=O)[C@H](C)NC(=O)CC[C@H](NC(=O)CCCCCCCCCCCCCCCCC(=O)O)C(=O)O)[C@@H](C)O)C(=O)NCC(=O)N[C@@H](CCCNC(=N)N)C(=O)N[C@@H](CC(C)C)C(=O)N[C@@H](CO)C(=O)N[C@@H](C)C(=O)N[C@@H](CCC(=O)O)C(=O)N[C@@H](CC(C)C)C(=O)N[C@@H](Cc1cnc[nH]1)C(=O)N[C@@H](CCC(=O)O)C(=O)N[C@@H](CC(C)C)C(=O)N[C@@H](C)C(=O)N[C@H](C(=O)N[C@@H](CC(C)C)C(=O)N1CCC[C@H]1C(=O)N[C@@H](CCCNC(=N)N)C(=O)N[C@H](C(=O)N[C@@H](CCC(=O)O)C(=O)N[C@H](C(=O)NCC(=O)N[C@@H](CO)C(=O)NCC(=O)N[C@@H](CO)C(=O)N1CCC[C@H]1C(N)=O)[C@@H](C)O)[C@@H](C)O)[C@@H](C)O` ({C18 diacid-γGlu}-ASQLSTAALGRLSAELHELATLPRTETGSGSP-NH2), the solubility at 18 h in series [1], in series [4], in series [6], in [8], in series [10] and in series [11] was at least 200 µM each time. For the same compound, the solubility at 18 h in series [14] and in series [15] was at least 200 µM in each case. Further, the EC50 in series [7] was 0.009 nM; on Calcitonin receptor [17], 0.011 nM. Also, the concentration for half-maximal inhibition (IC50) at Calcitonin receptor [20] turned out to be 0.605 nM.
